From US9567331B2 (priority 2011, dated 2017)

How the values were obtained:
[1] = test system: wild-type vaccinia strain Western Reserve; assay type: cell-based
HIV/Lai = assay: microbe, parasite or virus in culture; assay type: cell-based; conditions: Human immunodeficiency virus 1, TZM-bl, read-out: IC50, inhibition of HIV
[2] = test system: LV virus late reporter expression; assay type: cell-based, vaccinia strain Western Reserve
[3] = test system: viral DNA replication (LV virus); assay type: cell-based
[4] = test system: cellular and viral protein synthesis
[5] = test system: EV, IV and LV reporter viruses; assay type: cell-based
[6] = test system: LREV virus (late red early Venus reporter vaccinia virus); assay type: cell-based
[7] = test system: vaccinia virus strain IHDJ; assay type: cell-based
[8] = test system: EV, IV and LV reporter mRNA; assay type: cell-based, vaccinia strain Western Reserve
[9] = test system: LV virus / LR virus in A549 cells; assay type: cell-based, vaccinia strain Western Reserve
TrpV reporter virus = assay type: cell-based
[10] = test system: cowpox Brighton red (CPX); assay type: cell-based
[11] = test system: monkeypox Zaire 1979 (MPDX); assay type: cell-based
[12] = test system: late Venus; LV virus (Venus under control of the late F17R promoter); assay type: cell-based, vaccinia strain Western Reserve
vaccinia virus = assay type: cell-based

COC(=O)C1=C2C=C([Si](C)(C)C)CCN2C(=O)NC1c1ccccc1 (centres unmarked) [Compound 4c, methyl 1-oxo-3-phenyl-6-(trimethylsilyl)-2,3,7,8-tetrahydro-1Hpyrido[1,2-c]pyrimidine-4-carboxylate] gave a melting point of 169 to 172 °C.
In the case of Nc1ccn([C@@H]2O[C@H](CO)[C@@H](O)[C@@H]2O)c(=O)n1 [AraC], the “virus yield reduction, single-cycle” value [1] is reported as 3.5 log.
With CC(=O)C1=C2C=CCCN2C(=O)N[C@H]1c1ccccc1 [CMLDBU6128, 4-acetyl-2,3,7,8-tetrahydro-3-phenylpyrido[1,2-f]pyrimidin-1-one] the IC50 (HIV/Lai) was ~20 µM, the “reporter expression after drug removal” value [2] was “drug removal did not result in a restart of reporter expression” and the “time to flattening of late reporter expression after addition to an unimpeded 10 h infection” value [2] was ≤ 2 h. For the same compound, the “cytotoxicity of screening hit” value (A549 and HeLa cells) was “not cytotoxic”, the cell cytotoxicity (A549 and HeLa cells; 24 h) was “little to no cell cytotoxicity” and the “Venus DNA copies/c.e.” value [3] was 529 copies/c.e. The “viral DNA replication” value [3] was “occurred normally”, the “cellular protein synthesis in mock-infected cells” value [4] was “unaffected” and the viral protein synthesis [4] was “globally reduced”. The “EV (early) reporter expression” value [5] was “unaffected”, the “IV (intermediate) reporter expression” value [5] was “only reached half-maximal levels” and the “reduction of maximum LV (late) reporter fluorescence” value [5] was “approximately 85%”. For the same compound, the “antiviral activity of screening hit” value [6] was “strongly antiviral”, the viral yield reduction [7] was 2.4 log and the “EV reporter mRNA accumulation” value [8] was “unaffected”. The “reduction of peak IV reporter mRNA” value [8] was 41%, the “reduction of peak LV reporter mRNA” value [8] was 73% and the “virus yield reduction, single-cycle” value [1] was 3.6 log. For the same compound, the “viral spread after low MOI infection” value [9] was “limits viral spread after low MOI infection”, the “early Venus expression (TrpV)” value (TrpV reporter virus) was “no detectable effect” and the “mCherry and late TagBFP expression (TrpV)” value (TrpV reporter virus) was “reduced mCherry and late TagBFP expression uniformly”. For the same compound, the viral yield reduction [10] was 4.0 log, the viral yield reduction [11] was 2.5 log and the IC50 ([12]; read-out: IC50 for LV reporter expression) was ~5.3 µM. It also gave an IC90 ([12]; read-out: IC90 for LV reporter expression) of ~10.4 µM.
In the case of CC(=O)C1=C2C=C(C)CCN2C(=O)NC1c1ccccc1 (centres unmarked) [Compound 3b, 4-acetyl-6-methyl-3-phenyl-2,3,7,8-tetrahydro-1H-pyrido[1,2-c]pyrimidin-1-one], the “antiviral activity compared with CMLDBU6128” value (vaccinia virus) is reported as “demonstrated antiviral activity but were significantly less active than CMLDBU6 128”.
For O=C(NN1C(=O)[C@@H]2[C@@H]3C=C[C@@H]([C@H]4C[C@@H]34)[C@@H]2C1=O)c1ccc(C(F)(F)F)cc1 [ST-246], the “virus yield reduction, single-cycle” value [1] was 0.3 log.
